In brackets after ≈: the same amount, converted by molar mass.
What was measured:
METTL3 = METTL3 (Homo sapiens (Human), UniProt Q86U44); experiment: TR-FRET biochemical assay (time resolved-Förster resonance energy transfer); conditions: for LLE (lipophilic ligand efficiency, pIC50-logP): calculated with DataWarrior; for potency reduction / loss: relative to parent compound
Excerpt: The bonds formed are depicted in red. The IC50 values refer to the biochemical assay based on time resolved-Forster resonance energy transfer (TR-FRET). B) Superimposition of compounds 1 (grey, from X-ray with METTL3, PDB code: 7NHI) and 2 (cyan, drawn in Pymol).

[1] = Rat liver microsomes
in vitro = conditions: rat, microsomes
METTL3/METTL14 = METTL3/METTL14 (Homo sapiens (Human), UniProt Q86U44); experiment: Protein thermal shift assay, METTL3/METTL14; conditions: read-out: ΔTm
[2] = IC50 data for N6-adenosine-methyltransferase

Chain of METTL3 (Q86U44 whole entry, looked up): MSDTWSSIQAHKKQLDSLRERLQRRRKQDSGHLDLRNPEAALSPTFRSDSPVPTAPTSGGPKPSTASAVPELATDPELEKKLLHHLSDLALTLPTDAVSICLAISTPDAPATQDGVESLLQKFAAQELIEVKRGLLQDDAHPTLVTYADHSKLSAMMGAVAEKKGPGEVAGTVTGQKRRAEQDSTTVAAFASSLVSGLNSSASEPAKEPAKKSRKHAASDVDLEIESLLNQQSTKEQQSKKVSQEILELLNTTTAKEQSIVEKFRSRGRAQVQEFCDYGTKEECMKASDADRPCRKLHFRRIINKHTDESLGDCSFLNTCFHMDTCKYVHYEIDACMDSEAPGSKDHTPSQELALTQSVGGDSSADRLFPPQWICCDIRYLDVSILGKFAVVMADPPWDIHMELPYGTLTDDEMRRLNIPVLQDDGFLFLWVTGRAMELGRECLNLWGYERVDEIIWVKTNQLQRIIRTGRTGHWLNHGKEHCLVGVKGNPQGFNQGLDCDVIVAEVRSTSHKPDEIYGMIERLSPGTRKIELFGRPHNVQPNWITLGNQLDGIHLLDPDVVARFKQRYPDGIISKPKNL
Chain of METTL3 (Q9HCE5 whole entry partner, looked up): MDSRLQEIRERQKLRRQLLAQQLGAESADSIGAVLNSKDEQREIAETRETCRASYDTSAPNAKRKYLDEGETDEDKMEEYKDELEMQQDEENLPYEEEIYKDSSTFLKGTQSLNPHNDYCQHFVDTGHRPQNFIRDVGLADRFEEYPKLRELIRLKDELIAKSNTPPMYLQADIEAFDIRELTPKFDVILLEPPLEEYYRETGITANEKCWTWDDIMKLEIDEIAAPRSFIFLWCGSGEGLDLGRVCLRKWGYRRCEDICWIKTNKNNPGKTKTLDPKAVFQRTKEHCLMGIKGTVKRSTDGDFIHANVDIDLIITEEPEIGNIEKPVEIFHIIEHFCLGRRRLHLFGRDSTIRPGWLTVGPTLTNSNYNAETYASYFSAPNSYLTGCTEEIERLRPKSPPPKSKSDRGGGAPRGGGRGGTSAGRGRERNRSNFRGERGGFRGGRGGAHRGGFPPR
Chain of METTL3/METTL14 (Q86U44 whole entry, looked up): as the sequence (Q86U44 whole entry, looked up) above
Chain of METTL3/METTL14 (Q9HCE5 whole entry partner, looked up): as the sequence (Q9HCE5 whole entry partner, looked up) above

| SMILES | LE (ligand efficiency) (METTL3) | IC50 (METTL3; TR-FRET assay) [nM] | LLE (lipophilic ligand efficiency, pIC50-logP) (METTL3) | IC50 (METTL3; [2]) [nM] | further results |
| --- | --- | --- | --- | --- | --- |
| CNc1cc(N2CCCC(O)(CNC(=O)c3ccc(CN4CCC(C)(C)CC4)cc3)C2)ncn1 (stereo not shown) [Compound 1] | 0.21 kcal.mol^-1.heavy atom count^-1 | 8200 | 2.5 |  |  |
| CC1(C)CCN(Cc2ccc(C(=O)NC3CCN(c4cc(NCc5ccccc5)ncn4)CC3)cn2)CC1 [Compound 6] | 0.20 kcal.mol^-1.heavy atom count^-1 | 3600 | 1.7 |  |  |
| CC1(C)CCN(Cc2ccc(N3CCOC4(CCN(c5cc(NCc6ccccc6)ncn5)CC4)C3)cn2)CC1 [Compound 7, N-Benzyl-6-(4-(6-((4,4-dimethylpiperidin-1-yl)methyl)pyridin-3-yl)-1-oxa-4,9-diazaspiro[5.5]undecan-9-yl)pyrimidin-4-amine] |  | 280 |  | 280 |  |
| CC1(C)CCN(Cc2ccc(N3CC(=O)NC4(CCN(c5cc(NCc6ccccc6)ncn5)CC4)C3)cn2)CC1 [Compound 8, 9-(6-(Benzylamino)pyrimidin-4-yl)-4-(6-((4,4-dimethylpiperidin-1-yl)methyl)pyridin-3-yl)-1,4,9-triazaspiro[5.5]undecan-2-one] |  | 37 |  | 37 |  |
| CC1(C)CCN(Cc2ccc(N3CC(=O)NC4(CCN(c5cc(NCc6ccccc6)ncn5)CC4)C3)cc2)CC1 [Compound 9, 9-(6-(Benzylamino)pyrimidin-4-yl)-4-(4-((4,4-dimethylpiperidin-1-yl)methyl)phenyl)-1,4,9-triazaspiro[5.5]undecan-2-one] |  | 26 |  | 26 |  |
| CNc1cc(N2CC3(CN(c4ccc(CN5CCC(C)(C)CC5)cc4)CC(=O)N3)C2)ncn1 [Compound 11, 8-(4-((4,4-Dimethylpiperidin-1-yl)methyl)phenyl)-2-(6-(methylamino)pyrimidin-4-yl)-2,5,8-triazaspiro[3.5]nonan-6-one] | 0.26 kcal.mol^-1.heavy atom count^-1 | 440 | 4.5 | 440 | potency reduction / loss (METTL3): 5 fold; RLM t1/2 [1]: 70 min; Kinetic solubility (Kinetic solubility): 86 µM |
| CNc1cc(N2CCC3(CC2)CN(c2ccc(CN4CCC(C)(C)CC4)cc2)C(=O)N3)ncn1 [Compound 12] | 0.23 kcal.mol^-1.heavy atom count^-1 | 1800 | 2.6 |  | potency reduction / loss (METTL3): 20 fold |
| CN(C)c1cc(N2CCC3(CC2)CN(c2ccc(CN4CCC(C)(C)CC4)cc2)CC(=O)N3)ncn1 [Compound 14] | 0.23 kcal.mol^-1.heavy atom count^-1 | 970 | 3.2 |  |  |
| CC(C)Nc1cc(N2CCC3(CC2)CN(c2ccc(CN4CCC(C)(C)CC4)cc2)CC(=O)N3)ncn1 [Compound 15, 4-(4-((4,4-Dimethylpiperidin-1-yl)methyl)phenyl)-9-(6-(isopropylamino)pyrimidin-4-yl)-1,4,9-triazaspiro[5.5]undecan-2-one] | 0.24 kcal.mol^-1.heavy atom count^-1 | 330 | 3.2 | 330 |  |
| CC1(C)CCN(Cc2ccc(N3CC(=O)NC4(CCN(c5cc(NC6CC6)ncn5)CC4)C3)cc2)CC1 [Compound 16, 9-(6-(Cyclopropylamino)pyrimidin-4-yl)-4-(4-((4,4-dimethylpiperidin-1-yl)methyl)phenyl)-1,4,9-triazaspiro[5.5]undecan-2-one] |  | 84 |  | 84 |  |
| CC1(C)CCN(Cc2ccc(N3CC(=O)NC4(CCN(c5ncnc6[nH]ccc56)CC4)C3)cc2)CC1 [Compound 17, 4-(4-((4,4-Dimethylpiperidin-1-yl)methyl)phenyl)-9-(7H-pyrrolo[2,3-d]pyrimidin-4-yl)-1,4,9-triazaspiro[5.5]undecan-2-one] |  | 61 |  | 61 |  |
| CC1(C)CCN(Cc2ccc(N3CC(=O)NC4(CCN(c5ccnc6[nH]ccc56)CC4)C3)cc2)CC1 [Compound 18] | 0.20 kcal.mol^-1.heavy atom count^-1 | 4500 | 2.3 |  | potency reduction / loss (METTL3): 74 fold |
| CC1(C)CCN(Cc2ccc(N3CC(=O)NC4(CCN(c5nc(Cl)nc6[nH]ccc56)CC4)C3)cc2)CC1 [Compound 19, 9-(2-Chloro-7H-pyrrolo[2,3-d]pyrimidin-4-yl)-4-(4-((4,4-dimethylpiperidin-1-yl)methyl)phenyl)-1,4,9-triazaspiro[5.5]undecan-2-one] | 0.28 kcal.mol^-1.heavy atom count^-1 | 24 | 3.9 | 24 | RLM t1/2 [1]: 32 min; half-life (in vitro): 32 min; Kinetic solubility (Kinetic solubility): 45 µM; solubility kinetic (Kinetic solubility; kinetic from dmso stock): 45 µM (≈ 23.5 µg/mL) |
| CNc1cc(N2CCC3(CC2)CN(c2ccc(CN4CCC(C)(C)CC4)cc2F)CC(=O)N3)ncn1 [Compound 20, 4-(4-((4,4-Dimethylpiperidin-1-yl)methyl)-2-fluorophenyl)-9-(6-(methylamino)pyrimidin-4-yl)-1,4,9-triazaspiro[5.5]undecan-2-one] |  | 38 |  | 38 |  |
| CNc1cc(N2CCC3(CC2)CN(c2ccc(CN4CCC(C)(C)CC4)c(F)c2)CC(=O)N3)ncn1 [Compound 21, 4-(4-((4,4-Dimethylpiperidin-1-yl)methyl)-3-fluorophenyl)-9-(6-(methylamino)pyrimidin-4-yl)-1,4,9-triazaspiro[5.5]undecan-2-one] |  | 32 |  | 32 |  |
| CNc1cc(N2CCC3(CC2)CN(c2cc(F)c(CN4CCC(C)(C)CC4)cc2F)CC(=O)N3)ncn1 [Compound 22, 4-(4-((4,4-Dimethylpiperidin-1-yl)methyl)-2,5-difluorophenyl)-9-(6-(methylamino)pyrimidin-4-yl)-1,4,9-triazaspiro[5.5]undecan-2-one] |  |  |  |  | ΔTm at 100 µM (METTL3/METTL14): 4.7 °C |
| Nc1ncnc2c1ncn2[C@@H]1O[C@H](CSCC[C@H](N)C(=O)O)[C@@H](O)[C@H]1O [SAH, S-adenosyl-L-homocysteine, reference compound] |  |  |  |  | ΔTm at 100 µM (METTL3/METTL14): 2.8 °C |

Source: patent US20240139189A1, “N6-ADENOSINE-[…] INHIBITORS IN CANCER TREATMENT” (priority 2021, published 2024)
